Reference: paper PMC4756062 (Clinical Pharmacokinetics, 2015)
“Also recorded” adds a separate entry of the source. Like-named read-outs stand apart in the source and are kept apart here.

How the values were obtained:
[1] = assay type: in vivo, human (breast cancer patients); details: for AUC(0-t): AUC0–24, plasma; for C trough: concentration before dosing; for C trough / C trough, ratio of weak to potent CYP2D6-inhibiting SSRI: 10 patients
[2] = Adverse effects recorded during the antidepressant switch study; assay type: in vivo, human (breast cancer patients)
[3] = after versus before the switch, median (range)
[4] = female, human, plasma, tamoxifen + potent CYP2D6-inhibiting SSRI (paroxetine or fluoxetine), median (range), dose corrected to 20 mg tamoxifen
[5] = female, human, plasma, C max, plasma, tamoxifen + potent CYP2D6-inhibiting SSRI (paroxetine or fluoxetine), median (range), dose corrected to 20 mg tamoxifen
[6] = plasma, tamoxifen + potent CYP2D6-inhibiting SSRI (paroxetine or fluoxetine), median (range)
[7] = plasma, after versus before the switch, median (range)
[8] = tamoxifen + potent CYP2D6-inhibiting SSRI (paroxetine or fluoxetine), median (range)
[9] = plasma, switch from paroxetine/fluoxetine to escitalopram
[10] = plasma, tamoxifen + potent CYP2D6-inhibiting SSRI (paroxetine or fluoxetine), median (range), dose corrected to 20 mg tamoxifen

Row | AUC(0-t) [1, 4] | Cmax [1, 5] | C trough [1, 6] | C max, ratio of weak to potent CYP2D6-inhibiting SSRI [1, 7] | C trough, ratio of weak to potent CYP2D6-inhibiting SSRI [1, 7] | AUC0–24, ratio of weak to potent CYP2D6-inhibiting SSRI [1, 7] | SMILES | other results
1 | 0.0992 µM·h | 5.46 nM | 5.20 (3.48–10.6) nM | 2.96 (1.50–7.44) | 2.80 (1.02–6.33) |  | CC/C(=C(\c1ccc(O)cc1)c1ccc(OCCNC)cc1)c1ccccc1 [Endoxifen, 4-hydroxy-N-desmethyl-tamoxifen] | AUC0–24 ratio endoxifen to ND-Tam, ratio of weak to potent CYP2D6-inhibiting SSRI [1, 3]: 3.33 (1.56–5.37); Fold higher endoxifen exposure after the switch, single patient ([1]; one person using 40 mg tamoxifen (dose corrected to 20 mg)): 2.9 fold; C max, ratio of weak to potent CYP2D6-inhibiting SSRI ([1]; plasma, after versus before the switch, median (range), listed as endoxifen): ~ 3; AUC0–24 ratio endoxifen to ND-Tam [1, 8]: 0.0113 (0.0065–0.014); AUC0–24 ratio endoxifen to tamoxifen [1, 8]: 0.0213 (0.0057–0.029)
2 | 6.42 µM·h | 369 nM | 278 (128–557) nM |  |  |  | CC/C(=C(\c1ccccc1)c1ccc(OCCN(C)C)cc1)c1ccccc1 [Tamoxifen, reference compound] | 
3 |  |  |  |  |  |  | CN(C)CCC[C@@]1(c2ccc(F)cc2)OCc2cc(C#N)ccc21 [escitalopram, S-citalopram] | Hot flashes ([2]; tamoxifen-treated women, during co-administration): hot flashes were reported particularly during escitalopram co-administration; Safety of switching from paroxetine/fluoxetine to escitalopram (antidepressant-related adverse events, psychiatric relapse) ([2]; tamoxifen-treated women, escitalopram 10–20 mg/day, cross-tapering): safe and feasible; also recorded: No antidepressant-related adverse events or psychiatric relapse were noted; Discontinuation of treatment ([2]; ten tamoxifen-treated women): None of the ten women had to discontinue
4 | 0.0638 µM·h | 3.46 nM | 2.47 (1.29–4.65) nM | 1.42 (0.81–2.05) | 1.40 (0.82–2.06) | 1.34 (0.88–1.87) | CC/C(=C(\c1ccc(O)cc1)c1ccc(OCCN(C)C)cc1)c1ccccc1 [4-OH-Tam, 4-hydroxytamoxifen] | AUC0–24 ratio 4-OH-Tam to tamoxifen, ratio of weak to potent CYP2D6-inhibiting SSRI [1, 3]: 1.51 (1.08–1.67); AUC0–24 ratio 4-OH-Tam to tamoxifen, ratio of weak to potent CYP2D6-inhibiting SSRI ([1]; after versus before the switch, median (range), listed as 4-hydroxytamoxifen): ~ 1.5; Increase in AUC0–24 after the switch [1, 9]: 34%; Increase in Cmax after the switch [1, 9]: 42%; Increase in Ctrough after the switch [1, 9]: 40%; AUC0–24 ratio 4-OH-Tam to tamoxifen [1, 8]: 0.0109 (0.0053–0.014)
5 |  |  | 446 (306–807) nM | 1.09 (0.77–1.75) | 0.97 (0.76–1.37) | 1.09 (0.75–1.27) | CC/C(=C(\c1ccccc1)c1ccc(OCCNC)cc1)c1ccccc1 [ND-Tam, N-desmethyltamoxifen] | AUC0–24 [1, 10]: 10,149 (7744–20,107) nM·h; Cmax [1, 10]: 528 nM
